# Results reported in patent US11819526B2, “Lactobacillus Gasseri KBL697 strain and use thereof” (KoBioLabs, Inc., priority 2018, dated 2023).
# Assays:
# RBL-2H3 cell line = assay: Degranulation (β-hexosaminidase, co-secreted with histamine) in RBL-2H3 cells; format: cell-based; details: RBL-2H3, IgE + antigen DNP-HAS; 120 μL bacterial culture supernatant or ketotifen 20 μg/mL; negative control (Siraganian buffer) = 1.0
# Source text: It has been reported that, in an allergic reaction, histamine is expressed in tissues, causing an inflammatory reaction, and suppressing histamine secretion leads to alleviation of allergic symptoms by blocking the reaction by histamine. In the present invention, the alleviation of allergic reactions and the therapeutic effect thereon through inhibition of histamine secretion by KBL697 were further confirmed. Further, in order to confirm whether the effect for treating and preventing chronic allergies identified in Example 1 is an inherent attribute of Lactobacillus gasseri, or is a remarkable effect particularly in KBL697 among Lactobacillus gasseri, the ability to suppress histamine secretion was evaluated also for nine additional Lactobacillus gasseri strains in addition to KBL697. […]
# To identify the activity of β-hexosaminidase, 25 μL of the supernatant collected in Example 2-3 was transferred to each well of a 96-well plate, and then 25 μL of substrate (p-nitrophenyl N-acetyl-D-glucosaminidase) was added to each, and followed by a reaction at 37° C. in the 5% CO2 incubator for 90 minutes. Then, 200 μL of stop solution (Na2CO3/NaHCO3) was added to stop the reaction and then absorbance was measured at 405 nm. […]
# [1] = tested on: C57BL6 mice with DSS-induced colitis; assay: DSS-induced colitis in C57BL6 mice, KBL697 with or without infliximab; format: in vivo, mouse; details: administered alone
# Source text: Infliximab (product name Remicade) is a therapeutic recombinant antibody drug used as an injection for autoimmune diseases such as rheumatoid arthritis, ankylosing spondylitis, ulcerative colitis, Crohn's disease in adults, Crohn's disease in children, psoriasis, and psoriatic arthritis. The purpose of this study was to confirm the effect of improving intestinal disease symptoms in vivo in the case of concurrent administration of KBL697 and infliximab.
# After dividing C57BL6 mice into groups of eight mice, the mice were fed tap water with 2% DSS dissolved therein for 8 days (D0 to D7), inducing colitis. At the same time, 200 μL of PBS was orally administered to the mice in the control group for 14 days (D0 to D13) daily, while 200 μL of the KBL697 strain diluted in PBS to 1×10^10 CFU/mL was orally administered to the mice in the group dosed with KBL697 so that the amount of daily administration could be set at 2×10^9 CFU. […] During the 14 days in which colitis was induced by DSS, the body weight changes of the mice in the control group and each test group were measured daily, and on the 14th day after DSS was supplied (D14), mice were subjected to autopsies to measure the length of the colon.
Compound,β-hexosaminidase (fold change) (RBL-2H3 cell line),"width of decrease in the colon length compared to control group (DSS+PBS) ([1]; 2% DSS 8 days, KBL697 2×10^9 CFU oral daily, infliximab 5 mg/kg, D14, FIGS. 18A, 18B)","effect on body weight decrease compared to control group ([1]; 2% DSS, when 14 days elapsed after the administration)"
"CN1CCC(=C2c3ccccc3CC(=O)c3sccc32)CC1 [Ketotifen, ketotifen]",0.3861,,
infliximab: therapeutic recombinant antibody drug (product name Remicade),,significantly improved,significantly improved
